Reference: patent US9567347B2, “Use of small molecule inhibitors targeting the interaction between RAC GTPase and p67(phox)” (CHILDREN'S HOSPITAL MEDICAL CENTER, priority 2012, dated 2017)

What was measured:
[1] = system: fMLP-activated primary murine neutrophils; assay: Nitroblue tetrazolium (NBT) assay; type: cell-based, mouse; conditions: for ROS inhibition (NBT positive cells): 10 μM, FIG. 9
Experimental: Primary neutrophils from mouse bone marrow were subjected to fMLP stimulation in the presence or absence of various chemicals for 5 min. Cells were stained for NBT activity as previously described in the incorporated materials of Filippi et al. (2004) to reveal relative ROS production.
To complement the DCFDA based FACS analysis and the luminol chemiluminescence method, nitroblue tetrazolium (NBT) assays were performed in fMLP-activated primary murine neutrophils (FIG. 3C).
The NBT assay was performed in primary murine neutrophils to measure ROS neutrophil production. […] Each compound was used at 10 μM.

[2] = system: fMLP-stimulated differentiated HL-60 cells; assay: H2-DCFDA FACS ROS production assay in fMLP-stimulated differentiated HL-60 cells; type: cell-based, human; conditions: treated 2 hours, FIG. 5B
Experimental: HL-60 cells were propagated in RPMI 1640 medium containing 10% heat inactivated fetal bovine serum, 2 mM L-glutamine, 100 U/mL penicillin/streptomycin at 37° C. in air containing 5% CO2. For differentiation, HL-60 cells were cultured in 1.3% dimethyl sulfoxide (DMSO) as previously described (Servant, G., et al. (1999) Mol Biol Cell 10, 1163-1178, hereby incorporated by reference in its entirety). Primary murine neutrophils were isolated from C57Bl/6 mouse bone marrow according to a published protocol (Filippi et al., (2004) Nat Immunol 5, 744-751, hereby incorporated by reference in its entirety) using a discontinuous Percoll (Pharmacia) gradient and were utilized immediately in experiments. Human neutrophils were obtained from fresh blood (IRB #2010-1855, Cincinnati Children's Hospital medical Center) following a well established protocol using density gradient separation from whole blood (Oh et al. (2008) J Vis Exp., 17, pii: 745, hereby incorporated by reference in its entirety).
(§1) Cells (5×10^5) were harvested and processed for Annexin V/7AAD staining according to manufacturer's protocol (Becton Dickinson). Flow cytometry data were acquired on a FACS Canto bench-top flow cytometer (Becton Dickinson) and the cell cycle distributions were determined by […] using Flo-Jo software (Bosco et al (2010) Blood 115, 3320-3328, hereby incorporated by reference in its entirety). For ROS production assay, primary murine neutrophils or dHL60 cells were incubated with compound for 2 hours prior to addition of H2-DCFDA according to manufacturer's instructions (Molecular Probes). Cells were then stimulated with 10 μM fMLP (Sigma), 1 mM CaCl2, and 1.5 mM MgCl2 for 15 minutes prior to wash and FACS analysis for mean fluorescence intensity. Non-fMLP stimulated control values were subtracted from all samples before normalization to fMLP-stimulated, vehicle control treated sample in order to display percent ROS inhibition.
To validate the hits from preliminary screening in cells, several cellular functional assays were performed using different cell types to measure the effect of compounds on inhibition of ROS production. ROS levels were first analyzed by fluorescence-activated cell sorting (FACS) in HL-60 pre-incubated with compounds for 2 hr prior to stimulation of ROS production. The p67^phox inhibitor, Phox-I1, was tested against NAC (a ROS scavenger), DPI (a broad range inhibitor of NADPH oxidase), and NSC23766 (a Rac-GTP inhibitor; FIG. 2A). […] H2O2 added to the cells was included as a positive control for ROS measurement. Second, to test the capacity of Phox-I1 to inhibit ROS production in a primary cell context, primary murine neutrophils isolated from mouse bone marrow were treated with increasing concentrations of Phox-I1 and the efficacy of inhibition of fMLP-stimulated ROS production was analyzed. DPI treatment was included as a positive control for inhibition of ROS production (FIG. 2B). […] Next, to ascertain the optimal effective dose for ROS inhibition in cells, a dose titration series of Phox-I1 was administered to dHL-60 cells (FIG. 2C).

[3] = system: LPS-induced ALI in mice; conditions: 5 mg/kg i.p. every 8 hours, 24 hours after LPS
Experimental: FIG. 8. […] Mice were challenged with LPS or vehicle via intratracheal administration and treated or not with compound 100 (indicated as “NOX2-I”; 5 mg/kg, 3 injections every 8 hours). (A) Isoprostane, as an indication of ROS production, was measured in lung homogenates 24 hours following LPS challenge by ELISA. (B) Lung histology was performed 24 hours after LPS challenge. (n=3 mice per group). Representative images of histology are shown.
One life-threatening consequence of hemorrhagic shock is acute lung injury (ALI), which is associated with infiltration of neutrophils and release of ROS. A model of LPS-induced ALI was used in mice to test efficacy of the difluoro compound 100 in vivo.
Mice (N=3 per group) were treated with LPS (100 ng in 80 μl PBS) or PBS (vehicle) employing oral-tracheal intubation. Following challenge, the mice were injected i.p. with 5 mg/kg of compound 100, every 8 hours. The relative level of ROS release in the lungs upon LPS challenge was assessed by measuring 8-isoprostane by ELISA in lung tissue homogenates. Isoprostanes are a family of eicosanoids produced by the oxidation of tissue phospholipids by oxygen radicals. The amount of 8-isoprostane generated is thus an indication of ROS production.

[4] = system: neutrophils; assay: toxicity to neutrophils; type: cell-based, mouse
[5] = system: dHL-60 cells; assay: antioxidant (ROS scavenger) test in dHL-60 cells pre-stimulated with fMLP; type: cell-based, human; conditions: fMLP 30 min prior to treatment
Experimental: (A) Apoptosis analysis by FACS of HL-60 cells treated with compound or vehicle control for 2 hours prior to 7-AAD and Annexin V staining. (B) HL-60 cells from A were harvested and lysates were immunoblotted for levels of pPAK, and actin was used as a control for loading. (C) F-actin reorganization in freshly isolated fMLP-stimulated primary murine neutrophils was analyzed. […] Cells were exposed to a 10 μM dose of Phox-I1, Phox-I2, and Analog 13, and 200 nM nocodazole. (D) The effect of Phox-I on NOX4 mediated ROS production was tested in primary murine neutrophils transfected with a NOX4 expressing plasmid. 10 μM Phox-I1 was applied to the cells for 30 min prior to ROS assay by luminol chemiluminescence in the presence of HRP. The fMLP-stimulated ROS activity in the presence or absence of 10 uM Phox-I1 was measured in parallel. (E) The antioxidant abilities of these lead compounds were tested by prestimulating dHL-60 cells with fMLP for 30 minutes prior to treatment with Phox-I1 or Phox-I2. Levels of superoxide were analyzed by DCFDA assay and FACS. NAC, apocyanin, DPI, and NSC23766 treated cells served as controls. […] (G) For stability assay, DMSO-differentiated HL-60 cells were treated with 20 μM dose of compound for the indicated time period prior to fMLP stimulation and DCFDA ROS production assay by FACS analysis.
Phox-I1 was then applied to primary murine neutrophils expressing the constitutively active NOX4. […] To further rule out that Phox-I1 and Phox-I2 may simply act as scavengers of ROS, dHL-60 cells were pre-stimulated with fMLP for 30 min prior to treatment with Phox-I1 or Phox-I2.

[6] = system: dHL-60 cells; assay: DCFDA ROS assay after wash and recovery (affinity assay); type: cell-based, human; conditions: 2 hr treatment, recovery 4 hr or 2 hr
Experimental: (A) Apoptosis analysis by FACS of HL-60 cells treated with compound or vehicle control for 2 hours prior to 7-AAD and Annexin V staining. (B) HL-60 cells from A were harvested and lysates were immunoblotted for levels of pPAK, and actin was used as a control for loading. (C) F-actin reorganization in freshly isolated fMLP-stimulated primary murine neutrophils was analyzed. […] Cells were exposed to a 10 μM dose of Phox-I1, Phox-I2, and Analog 13, and 200 nM nocodazole. (D) The effect of Phox-I on NOX4 mediated ROS production was tested in primary murine neutrophils transfected with a NOX4 expressing plasmid. 10 μM Phox-I1 was applied to the cells for 30 min prior to ROS assay by luminol chemiluminescence in the presence of HRP. The fMLP-stimulated ROS activity in the presence or absence of 10 uM Phox-I1 was measured in parallel. (E) The antioxidant abilities of these lead compounds were tested by prestimulating dHL-60 cells with fMLP for 30 minutes prior to treatment with Phox-I1 or Phox-I2. Levels of superoxide were analyzed by DCFDA assay and FACS. NAC, apocyanin, DPI, and NSC23766 treated cells served as controls. (F) For affinity assay, DMSO-differentiated HL-60 cells were treated with standard effective dose of indicated compound for 2 hours, washed, and allowed to recover in normal media for 4 hours or 2 hours prior to fMLP stimulation and DCFDA ROS production assay by FACS analysis. (G) For stability assay, DMSO-differentiated HL-60 cells were treated with 20 μM dose of compound for the indicated time period prior to fMLP stimulation and DCFDA ROS production assay by FACS analysis.
Next, a stability experiment was performed to determine the duration of effectiveness of the compound in suppressing neutrophils. To analyze the relative affinities of these compounds for the p67^phox target in cells, DCFDA ROS production assays were performed in dHL-60 cells treated with compound for 2 hr followed by wash and recovery for 4 hr or 2 hr in normal media prior to ROS production analysis.

[7] = system: Pak; assay: immunoblot of phosphorylated Pak; type: cell-based, human; conditions: 18 hr treatment
Experimental: Whole-cell lysates were prepared by cell extraction using lysis buffer containing 20 mM Tris-HCl (pH 7.6), 100 mM NaCl, 10 mM MgCl2, 1% Triton X-100, 0.2% sodium deoxycholate, 1 mM phenylmethylsulfonyl fluoride, 10 μg/mL of leupeptin, 1 μg/mL of aprotinin, and 1 mM dithiothreitol for 30 min. Equal amounts of protein, as determined by Bradford assay, were resolved by SDS-PAGE. Specific proteins were detected by standard 9 immunoblotting procedures using the following primary antibodies: (Cell Signaling, 1:500 dilution) phospho-PAK1 (Ser144)/PAK2 (Ser141), (Sigma-Aldrich 1:500) β-Actin.
To analyze the biochemical specificity of these lead inhibitors on the effector pathways of active Rac1, undifferentiated HL-60 cells were treated with Phox-I1, Phox-I2, or NSC23766 for 18 hr. Immunoblot of the cell lysates was performed to probe the activity of Pak, a Rac effector other than p67^phox (FIG. 4B).

[8] = system: undifferentiated HL-60 cells; assay: apoptosis analysis by FACS (Annexin V / 7-AAD); type: cell-based, human; conditions: 20 or 100 μM
Experimental: as §1
In order to determine potency and cytotoxicity of Phox-I1 and Phox-I2, the levels of apoptosis were assessed in undifferentiated HL-60 cells treated with 20 or 100 μM Phox-I1, Phox-I2, or NSC23766 by FACS analysis for Annexin V (FIG. 4A).

[9] = system: primary murine neutrophils; assay: F-actin immunofluorescence, polarization upon fMLP stimulation; type: cell-based, mouse; conditions: 200 nM; control 80%
Experimental: Cells were pretreated with compound for 40 minutes prior to wash, and resuspended in HBSS with compound. Cells were allowed to adhere to fibronectin (Sigma Aldrich) coated glass coverslips (15 min) and then stimulated with 100 nM fMLP (3 min). Coverslips were then fixed with 3.7% paraformaldehyde (Sigma Aldrich) and then staining for […] was performed with rhodamine phalloidin per the manufacturer's instructions (Molecular Probes). Another method of addressing Rac-signaling specificity in neutrophils is by monitoring their ability to polarize actin to the leading edge upon fMLP stimulation. Neither Phox-I1, Phox-I2, nor an analog 13 (all at 10 μM), were able to block the Rac-mediated dynamic process of F-actin polarization to the leading edge of primary murine neutrophils as observed by F-actin immunofluorescence imaging (FIG. 4C, left panel). F-actin polarization was evident in about 80% of each treatment group of cells as in the control, untreated cells (FIG. 4C, right panel).

SMILES: Fc1cccc(C2Nc3ccc(F)cc3C3C=CCC32)c1 (centres unmarked) [Compound 100]
- superoxide inhibition (NBT), Phox-I2 analogs ([1]; FIG. 5C): profound superoxide inhibition
- ROS inhibitory activity, Phox-I2 analogs [2]: retain activity
- lung histology: neutrophil infiltration, alveoli wall thickness, lung architecture [3]: attenuated

SMILES: Fc1cccc([C@H]2Nc3ccc(F)cc3[C@@H]3OCCC[C@H]23)c1 [Compound 101]
- ROS inhibition (NBT positive cells) [1]: highest level of ROS inhibition
- ROS inhibition, dose response (NBT) ([1]; 0.1 to 10 μM, FIG. 10): most potent ROS inhibitor

SMILES: Fc1cccc([C@@H]2Nc3ccc(Br)cc3[C@@H]3C=CC[C@@H]32)c1 [Compound 102]
- ROS inhibition (NBT positive cells) [1]: highest level of ROS inhibition

SMILES: Fc1ccc2c(c1)[C@@H]1C=CC[C@@H]1[C@H](c1ccc(Cl)s1)N2 [Compound 103]
- ROS inhibition (NBT positive cells) [1]: highest level of ROS inhibition

SMILES: Fc1ccc2c(c1)[C@@H]1C=CC[C@@H]1[C@H](c1cccc(Cl)c1)N2 [Compound 106]
- ROS inhibition (NBT positive cells) [1]: highest level of ROS inhibition

SMILES: Fc1cccc(C2Nc3ccc(F)cc3C3C=CCCC32)c1 (centres unmarked) [Compound 109]
- toxicity to neutrophils [4]: toxic to neutrophils

SMILES: c1ccc2c(c1)[I+]c1ccccc1-2 [DPI, diphenyleneiodonium]
- levels of superoxide already produced [5]: do not affect

SMILES: CC(=O)N[C@@H](CS)C(=O)O [NAC, reference compound]
- ROS inhibition after wash [6]: retained the ability to inhibit ROS production

SMILES: CCN(CC)CCCC(C)Nc1nc(C)cc(Nc2ccc3nc(C)cc(N)c3c2)n1 (centres unmarked) [NSC23766, reference compound]
- levels of superoxide already produced [5]: do not affect
- ROS inhibition after wash [6]: retained the ability to inhibit ROS production
- phosphorylated Pak levels [7]: abrogated
- cell apoptosis (Annexin V) [8]: no detectable effect on cell apoptosis

SMILES: COC(=O)Nc1nc2ccc(C(=O)c3cccs3)cc2[nH]1 [Nocodazole, reference compound]
- cells with F-actin polarization [9]: ~20%

SMILES: COc1cc(C(C)=O)ccc1O [apocyanin]
- levels of superoxide already produced [5]: do not affect
